Measured values: patent publication US8846746B2, “Pyrazole compound and pharmaceutical use thereof” (Japan Tobacco Inc., priority 2011, dated 2014)

The compounds below were run against human SGLT1 (Homo sapiens (Human), UniProt P13866) (assay: SGLT1 inhibitory activity: 14C-AMG uptake into CHO-K1 cell line stably expressing human SGLT1). Conditions: 14C-AMG uptake, CHO-K1 cells expressing human SGLT1.
Format: cell-based
Procedure, shortened: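 Human SGLT1 was stably expressed in CHO-K1 cells. Cells were first held 20 min in sodium-free buffer, then exposed to compound in Na(+)/BSA buffer with tracer and AMG (2 mM in the added solution).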

human SGLT1, sequence (P13866 whole entry): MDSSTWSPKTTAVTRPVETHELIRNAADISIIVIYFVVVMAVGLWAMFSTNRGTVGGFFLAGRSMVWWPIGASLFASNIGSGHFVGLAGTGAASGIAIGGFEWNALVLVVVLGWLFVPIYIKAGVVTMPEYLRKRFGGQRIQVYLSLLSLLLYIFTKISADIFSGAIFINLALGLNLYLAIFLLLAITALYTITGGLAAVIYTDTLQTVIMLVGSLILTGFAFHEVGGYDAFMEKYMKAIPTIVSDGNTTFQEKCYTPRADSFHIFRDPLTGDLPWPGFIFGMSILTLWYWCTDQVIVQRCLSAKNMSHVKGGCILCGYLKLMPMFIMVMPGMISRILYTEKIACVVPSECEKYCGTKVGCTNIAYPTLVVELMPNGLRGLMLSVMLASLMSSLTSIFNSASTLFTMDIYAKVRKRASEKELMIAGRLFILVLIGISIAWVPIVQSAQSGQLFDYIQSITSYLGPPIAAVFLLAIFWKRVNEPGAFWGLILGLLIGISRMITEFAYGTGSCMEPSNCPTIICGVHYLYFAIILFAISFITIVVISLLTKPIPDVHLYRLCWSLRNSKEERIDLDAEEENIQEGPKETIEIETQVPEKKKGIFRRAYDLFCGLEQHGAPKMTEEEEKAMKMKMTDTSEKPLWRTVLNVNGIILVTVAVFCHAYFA

SMILES	IC50
CCC(F)(F)c1cccc(-c2cc(NC(=O)[C@H]3CNC(=O)C3)nn2CCC(C)(C)C)c1 [Example 143]	6.5 nM
CCCc1cccc(-c2cc(NC(=O)[C@@H]3CNC(=O)C3)nn2CCC2CCCCC2)c1 [Example 114]	27 nM
CC(C)Cc1cccc(-c2cc(NC(=O)[C@@H]3CNC(=O)C3)nn2-c2ccccc2)c1 [Example 71]	3.5 nM
CCCc1cccc(-c2cc(NC(=O)[C@@H]3CNC(=O)C3)nn2C(F)(F)F)c1 [Example 87]	110 nM
CCC(F)(F)c1cccc(-c2cc(NC(=O)[C@H]3CNC(=O)C3)nn2-c2ccccc2F)c1 [Example 182]	3.8 nM
CCCc1cccc(-c2cc(NC(=O)[C@H]3CNC(=O)N3C)nn2-c2ccccc2)c1 [Example 6, (R)-3-methyl-2-oxoimidazolidine-4-carboxylic acid [1-phenyl-5-(3-propylphenyl)-1H-pyrazol-3-yl]amide]	7.2 nM
CCCc1cccc(-c2cc(NC(=O)C3CNC(=O)C3CCO)nn2-c2ccccc2)c1 (racemic) [Example 115]	41 nM
CCCc1cccc(-c2cc(NC(=O)[C@H]3CNC(=O)C3)nn2-c2ccc(Cl)cc2)c1 [Example 36]	9.4 nM
CCC(F)(F)c1cccc(-c2cc(NC(=O)[C@H]3CNC(=O)C3)nn2-c2ccccc2Cl)c1 [Example 140]	1.1 nM
C[C@H]1C(=O)NC[C@@H]1C(=O)Nc1cc(-c2cccc(OC(F)(F)F)c2)n(C2CCC(F)(F)CC2)n1 [Example 198]	67 nM
CCC(C)(C)c1cccc(-c2cc(NC(=O)[C@H]3CNC(=O)C3)nn2-c2ccccc2)c1 [Example 52]	3.7 nM
O=C1C[C@@H](C(=O)Nc2cc(-c3cccc(OC(F)(F)F)c3)n(-c3ccccc3Cl)n2)CN1 [Example 130]	1.3 nM
CC(C)(C)c1cccc(-c2cc(NC(=O)[C@H]3CNC(=O)C3)nn2-c2cccc(Cl)c2)c1 [Example 126]	1.2 nM
CC(C)(C)c1cccc(-c2cc(NC(=O)[C@H]3CNC(=O)C3)nn2-c2ccc(Cl)cc2)c1 [Example 153]	3.3 nM
CC(C)C(F)(F)c1cccc(-c2cc(NC(=O)[C@H]3CNC(=O)C3)nn2-c2ccc(Cl)cc2)c1 [Example 158]	3.4 nM
CC(F)(F)c1cccc(-c2cc(NC(=O)[C@H]3CNC(=O)C3)nn2-c2ccc(Cl)cc2)c1 [Example 162]	19 nM
Cc1ccccc1-n1nc(NC(=O)[C@H]2CNC(=O)[C@@H]2C)cc1-c1cccc(OC(F)(F)F)c1 [Example 223]	2.3 nM
CCCc1cccc(-c2cc(NC(=O)[C@H]3CNC(=O)C3)nn2CCC(C)(C)C)c1 [Example 134]	6.8 nM
CCC(F)(F)c1cccc(-c2cc(NC(=O)C3CCC(=O)NC3)nn2-c2ccccc2)c1 (single isomer, unassigned) [Example 151]	19 nM
CCCc1cccc(-c2cc(NC(=O)[C@H]3CNC(=O)C3)nn2C2CCCCCC2)c1 [Example 68]	6.7 nM
O=C1C[C@@H](C(=O)Nc2cc(-c3cccc(C(F)(F)F)c3)n(-c3cccc(F)c3)n2)CN1 [Example 213]	14 nM
CCCc1cccc(-c2cc(NC(=O)C3CNC(=O)C3CC)nn2-c2ccccc2)c1 (racemic) [Example 60]	17 nM
CCCc1cccc(-c2cc(NC(=O)[C@@H]3CNC(=O)C3)nn2-c2ccc(C)cc2)c1 [Example 49]	12 nM
O=C1C[C@@H](C(=O)Nc2cc(-c3cccc(C(F)(F)F)c3)n(-c3ccccc3F)n2)CN1 [Example 228]	8.6 nM

Same assay, conditions: 14C-AMG uptake, CHO-K1 cells stably expressing human SGLT1

SMILES	IC50
Cc1cc(-c2cc(NC(=O)[C@@H]3CNC(=O)C3)nn2-c2ccccc2)cc(C(C)(C)C)c1 [Example 411]	4.4 nM
CCCc1cccc(-c2cc(NC(=O)[C@@H]3CNC(=O)C3)nn2-c2cccc(C(C)C)c2)c1 [Example 392]	5.7 nM
O=C1C[C@H](C(=O)Nc2cc(-c3cc(F)cc(COC(C(F)(F)F)C(F)(F)F)c3)n(-c3ccccc3)n2)CN1 [Example 585]	13 nM
CCCOc1cc(-n2nc(NC(=O)[C@@H]3CNC(=O)C3)cc2-c2cccc(OC(F)(F)F)c2)ccc1F [Example 423]	16 nM
CCCOc1cccc(-c2cc(NC(=O)[C@@H]3CNC(=O)C3)nn2-c2ccccc2)c1 [Example 284]	75 nM
C[C@@H](OCc1cc(Cl)cc(-c2cc(NC(=O)[C@@H]3CNC(=O)C3)nn2-c2cccc(F)c2)c1)C(F)(F)F [Example 578]	8.5 nM
O=C1C[C@H](C(=O)Nc2cc(-c3cccc(OCCC(F)(F)F)c3)n(-c3ccccc3)n2)CN1 [Example 272]	37 nM
CCCc1cccc(-c2cc(NC(=O)[C@H]3CNC(=O)N3C(C)C)nn2-c2ccccc2)c1 [Example 328]	29 nM
COc1cccc(-n2nc(NC(=O)[C@@H]3CNC(=O)C3)cc2-c2cccc(OC(F)(F)F)c2)c1F [Example 476]	21 nM
CCCc1cccc(-c2cc(NC(=O)[C@@H]3CNC(=O)C3)nn2-c2cccc(OCCO)c2)c1 [Example 408]	8 nM
C[C@@H](OCc1cc(F)cc(-c2cc(NC(=O)[C@H]3CNC(=O)O3)nn2-c2ccc(Cl)cc2)c1)C(F)(F)F [Example 571]	9.3 nM
O=C1C[C@H](C(=O)Nc2cc(-c3cccc(OC(F)(F)F)c3)n(-c3cccc(Cl)c3)n2)CN1 [Example 504]	23 nM
CCCc1cccc(-c2cc(NC(=O)[C@@H]3CNC(=O)C3)nn2-c2ccc(OC(C)C)cc2)c1 [Example 373]	5.3 nM
CCCOc1cccc(-n2nc(NC(=O)[C@@H]3CNC(=O)C3)cc2-c2cccc(OC(F)(F)F)c2)c1 [Example 444]	10 nM
O=C1C[C@H](C(=O)Nc2cc(-c3cccc(OCC(F)(F)F)c3)n(-c3ccccc3)n2)CN1 [Example 260]	23 nM
O=C1C[C@H](C(=O)Nc2cc(-c3cc(F)cc(COCC(F)(F)F)c3)n(-c3cccc(F)c3)n2)CN1 [Example 520]	18 nM
C[C@@H](OCc1cccc(-c2cc(NC(=O)[C@@H]3CNC(=O)C3)nn2-c2ccccc2)c1)C(F)(F)F [Example 334]	6.3 nM
CC(C)(OCc1cc(Cl)cc(-c2cc(NC(=O)[C@@H]3CNC(=O)C3)nn2-c2ccc(F)cc2)c1)C(F)(F)F [Example 581]	12 nM

SMILES	IC50
O=C1C[C@H](C(=O)Nc2cc(-c3cccc(COCC(F)(F)F)c3)n(-c3cccc(F)c3)n2)CN1 [Example 468]	17 nM
O=C1C[C@H](C(=O)Nc2cc(-c3cc(Cl)cc(COCC(F)(F)F)c3)n(-c3ccc(F)cc3)n2)CN1 [Example 589]	55 nM
O=C1C[C@H](C(=O)Nc2cc(-c3cccc(COC(C(F)(F)F)C(F)(F)F)c3)n(-c3ccccc3)n2)CN1 [Example 246, (S)-5-oxopyrrolidine-3-carboxylic acid{1-phenyl-5-[3-(2,2,2-trifluoro-1-trifluoromethylethoxymethyl)phenyl]-1H-pyrazol-3-yl}amide]	11.5 nM
O=C1C[C@H](C(=O)Nc2cc(-c3cccc(COCC(F)(F)F)c3)n(-c3ccccc3)n2)CN1 [Example 279]	17.5 nM
CC(C)Oc1ccc(F)c(-n2nc(NC(=O)[C@@H]3CNC(=O)C3)cc2-c2cccc(COCC(F)(F)F)c2)c1 [Example 461]	1.4 nM
CC(C)Oc1ccc(F)c(-n2nc(NC(=O)[C@@H]3CNC(=O)C3)cc2-c2cccc(CO[C@H](C)C(F)(F)F)c2)c1 [Example 464]	1.4 nM
COc1ccc(F)c(-n2nc(NC(=O)[C@@H]3CNC(=O)C3)cc2-c2cccc(CO[C@H](C)C(F)(F)F)c2)c1 [Example 523]	2.15 nM
O=C1C[C@H](C(=O)Nc2cc(-c3cc(Cl)cc(COCC(F)(F)F)c3)n(-c3ccccc3)n2)CN1 [Example 586]	46 nM
CCCc1cccc(-c2cc(NC(=O)[C@@H]3CNC(=O)C3)nn2-c2cccc(C(C)(C)C)c2)c1 [Example 394]	15 nM
COCCOc1ccc(F)c(-n2nc(NC(=O)[C@@H]3CNC(=O)C3)cc2-c2cccc(COCC(F)(F)F)c2)c1 [Example 462]	3.4 nM
CCCOc1cc(-n2nc(NC(=O)[C@@H]3CNC(=O)C3)cc2-c2cccc(COCC(F)(F)F)c2)ccc1F [Example 419]	4.75 nM
O=C1C[C@H](C(=O)Nc2cc(-c3cccc(COCC(F)(F)F)c3)n(-c3ccccc3Cl)n2)CN1 [Example 474]	7.3 nM
O=C1C[C@H](C(=O)Nc2cc(-c3cccc(OC(F)(F)F)c3)n(-c3ccccc3Cl)n2)CN1 [Example 473]	7.5 nM
CCOc1ccc(F)c(-n2nc(NC(=O)[C@@H]3CNC(=O)C3)cc2-c2cccc(OC(F)(F)F)c2)c1 [Example 516]	8.3 nM
CCCCc1cccc(-c2cc(NC(=O)[C@H]3CNC(=O)O3)nn2-c2ccccc2)c1 [Example 306]	13 nM
CCCc1cccc(-c2cc(NC(=O)[C@@H]3CNC(=O)C3)nn2-c2cccc(Cl)c2)c1 [Example 262]	6 nM
O=C1C[C@H](C(=O)Nc2cc(-c3cccc(COC(F)(F)F)c3)n(-c3ccccc3)n2)CN1 [Example 399]	19 nM
CCCOCc1cccc(-c2cc(NC(=O)[C@H]3CNC(=O)C3)nn2-c2ccccc2)c1 [Example 312]	22 nM

Same assay, conditions: CHO-K1, at 0.1 uM

SMILES	inhibition at 0.1 µM
CCCc1cccc(-c2cc(NC(=O)C3CNC(=O)C(C)C3)nn2-c2ccccc2)c1 (racemic) [Example 292]	43%
C[C@@H](OCc1cc(F)cc(-c2cc(NC(=O)[C@@H]3CNC(=O)C3)nn2C2CCOCC2)c1)C(F)(F)F [Example 583]	48%
O=C1C[C@H](C(=O)Nc2cc(-c3cccc(COC4COC4)c3)n(-c3ccccc3)n2)CN1 [Example 542]	18%
CCCc1cccc(-c2cc(NC(=O)C3CNC(=O)NC3)nn2-c2ccccc2)c1 [Example 251]	41%
O=C1C[C@H](C(=O)Nc2cc(-c3cccc(C#CC4CC4)c3)n(-c3ccccc3)n2)CN1 [Example 532]	26%

Same assay, conditions: CHO-K1, at 0.3 uM

SMILES	inhibition at 0.3 µM
CCCc1cccc(-c2cc(NC(=O)[C@H]3CNC(=O)N3CC(=O)O)nn2-c2ccccc2)c1 [Example 348]	26%
CC(C)S(=O)(=O)Cc1cccc(-c2cc(NC(=O)[C@@H]3CNC(=O)C3)nn2-c2ccccc2)c1 [Example 566]	22%
